The subject of one series is cultured neurons. Nature of the series: Lysosphingolipid content of cultured neurons by NBDZF fluorescence tagging. It is filed as cell-based, chick. Conditions: following exposure to 50 µM lysosphingolipid for 1 hour. An excerpt: Agonist-binding to metabotropic receptors influences the levels of lysosphingolipid in neuronal membranes. However, there is no convenient methodology available for the measurement of lysosphingolipid content in cultured neurons. As a result, a sensitive method of fluorometric tracing has been devised and is described herein. The measurement of lysosphingolipid content in cultured neurons is based on the stable fluorescence-tagging procedure using 4-fluoro, 7-nitrobenzofuran (NBDZF) described by Nozowa et al J. Neutochem. 59:607-609, 1992). The procedure was applied to: resting neurons; neurons exposed to 100 µM metabotropic receptor agonist for 1 hour; resting neurons exogenously enriched in lysosphingolipids; and neurons exogenously enriched in lysosphingolipids and exposed to metabotropic receptor agonist for 1 hour. The neurons were scraped in batches of 10^7 (1 Petri dish, approximately 8 cm in diameter, is equivalent to 2 mg membrane protein) and subjected to anaylsis.
(§1) Total lipids were removed from the neuron samples by repeated extraction with chloroform:methanol (2:1, vol:vol). The lysosphingolipids were separated from total neuronal lipid in 90 ± 5 % recovery yield (n = 10) by the stepped chromatographic procedure of Van Veldhoven et al. (Anal. Biochem. 183:177-189, 1989). The recovered lysosphingolipids were stably tagged with NBDZF by the rapid procedure of Nozowa et al. (supra). The fluorescence tagged neuronal lysosphingolipids were separated in parallel with reference standards NBDZF-Sph, NBDZF-Psy, and NBDZF-Lsm on high performance silica gel thin layer chromatography plates with acetonitrile:H2O (10:0.5, vol:vol). The highly fluorescent, well separated bands were scraped from the plate. The fluorescence tagged lysosphingolipids are eluted from the scraped silica gel with methanol:1 N HCl (1:0.02, vol:vol). The fluorescence tagged lysosphingolipid eluates were quantitated against reference standards by fluorescence measurement in a Perkin-Elmer LS-5 Fluorescence Spectrometer.
(§2) Sphingolipid content of neurons exposed to sphingosine, lysocerebroside, and lysosphingomyelin was examined as follows. A Petri dish containing approximately 10^7 neurons was incubated with 5 µCi [^3H]myo-Ins in 3 ml DMEM overnight to prelabel the phosphoinositide InsP3 may contain. The neurons were washed with PBS and 3 ml of PBS containing 4.5 g/l glucose was added. Preparations of sphingosine, lysocerebroside, lysosphingomyelin (Sigma Chemical Co., St. Louis, MO) and combinations of each were prepared as the hydrochloride salt dissolved in PBS. The lysosphingolipids were added to the Petri dishes to produce a concentration ranging from 0 - 150 µM. The dishes were held at room temperature for 0.5, 1, or 2 hours, then washed with PBS and incubated with 5 Units of trypsin in glucose/PBS for 4 hours at 37°C. Trypsinization removes non-specifically bound lysosphingolipids that may adhere to extracellular plasma membrane protein domains. Non-specific adherence between cationic micelles of lysosphingolipids and the neuronal glycocalyx is avoided by performing the experiments with lysosphingolipid concentrations below the critical micelle concentration. Neurons were analyzed for lysosphingolipid content as described above.

For series [1], the system named is phospholipase C isoforms beta, delta, and gamma. Briefly: Free phospholipase C activity in solution (kinetics). It is filed as biochemical. The following applies: for KM / diminution in Vmax / increase in calcium ion concentration required for optimal activity: 10 µM lysocerebroside or 5 µM lysosphingomyelin.
Description: The effects of sphingosine, lysocerebroside, and lysosphingomyelin on the kinetics of pure, immunologically isolated phospholipase C isoforms beta, delta, and gamma (which are commercially available) was examined. For each isoform, 10 µM sphingosine was added to a reaction medium consisting of 1 µg phospholipase C isoform/ml, Tris-malate buffer (50 mM, pH 7.0) containing 100 µM phosphatidyl inositol bis-phosphate tri-ammonium salt, 0.01 µCi tritium labeled phosphatidyl inositol bis-phosphate, 100 mM NaCl, 10 mM CaCl2, and 5 mM 2-merceptoethanol.
Series [2] can be described thus: Lysosphingolipid loading of isolated neuronal plasma membrane (fluorescence tagging). The following applies: Plasma Membrane Suspension, 10 μmolar exposure. It is filed as in vitro ADME, chick.
Excerpt: as §1
Physiologically active phospholipase C is present on the endofacial portion of the plasma membrane. A procedure for examining its activity in an intact membrane is provided. The neuronal membrane preparation described below is useful for determining lysosphingolipid effects on the phosphatidylinositol kinase and phospholipase C activities in intact membranes. One hundred Petri dishes of cultured cortical neurons were incubated overnight with 50 µCi [^3H]myo-inositol per mL of culture medium. Ten Petri dish-samples of cultured neurons (1 X 10^8 neurons; 23 ± 2 mg protein, n = 15) were pooled to produce 2.4 ± 0.2 mg plasma membrane by the following procedure. The collected neurons were homogenized in 5 mL 0.32 M sucrose and centrifuged at 1000 X g for 15 minutes. The supernatant was layered on top of 2 ml 1.2 M sucrose and centrifuged at 300,000 X g for 20 minutes. The sedimented pellet was resuspended by sonication for 10 seconds in 50 mM Tris buffer (pH 7.4), containing 0.3 µM CaCl2, 1 mM MgCl2, and 0.01% ascorbic acid.
The suspended plasma membrane preparation was apportioned into 250 µl samples, each providing approximately 100 µg membrane protein. Sphingosine, psychosine, and lysosphingomyelin were added to each plasma membrane sample. […] Samples were analyzed for lysosphingolipid loading (i.e., membrane lysosphingolipid content following exposure to exogenous sphingolipid) by fluorescence tagging. Table 2 provides the results of exposure of plasma membrane samples to 10 µM lysosphingolipids. Values are reported in pmoles lysosphingolipid/mg plasma membrane protein. Values obtained for isolated plasma membrane and intact neurons are compared.

Another series has as its system Intact neurons. Nature of the series: Lysosphingolipid loading of intact neurons (fluorescence tagging). It is filed as in vitro ADME, chick. The following applies: 10 μmolar exposure.
Excerpt: as §1
as §2, with “The dishes were held at room temperature for 0.5, 1, or 2 hours, then washed with PBS and incubated with 5 Units of trypsin in glucose/PBS for 4 hours at 37°C.” left out
The suspended plasma membrane preparation was apportioned into 250 µl samples, each providing approximately 100 µg membrane protein. Sphingosine, psychosine, and lysosphingomyelin were added to each plasma membrane sample. The samples were held at room temperature for 3 hours, centrifuged at 300,000 X g for 30 minutes, and the supernatant discarded. Samples were analyzed for lysosphingolipid loading (i.e., membrane lysosphingolipid content following exposure to exogenous sphingolipid) by fluorescence tagging. Table 2 provides the results of exposure of plasma membrane samples to 10 µM lysosphingolipids. Values are reported in pmoles lysosphingolipid/mg plasma membrane protein. Values obtained for isolated plasma membrane and intact neurons are compared.

With `CCCCCCCCCCCCC/C=C/[C@@H](O)[C@@H](N)COP(=O)([O-])OCC[N+](C)(C)C` [lysosphingomyelin, sphingosyl phosphorylcholine], the “content of sphingosine in the neurons” value in the series with cultured neurons was 105 ± 0.15 pmoles/mg protein. In series [1], the KM entry is given as “no change”, the “diminution in Vmax” value is reported as 60% ± 10% and the “increase in calcium ion concentration required for optimal activity” value is listed as 5 fold. Besides, in series [2], the “membrane lysosphingolipid content, 0 hours of incubation” value is 5±1 pmoles lysosphingolipid/mg plasma membrane protein; the “membrane lysosphingolipid content, 0.5 hours of incubation” value was 65±15 pmoles lysosphingolipid/mg plasma membrane protein; the “membrane lysosphingolipid content, 1.0 hours of incubation” value is recorded as 110±15 pmoles lysosphingolipid/mg plasma membrane protein; the “membrane lysosphingolipid content, 2.0 hours of incubation” value is recorded as 120±10 pmoles lysosphingolipid/mg plasma membrane protein. Also, in series [2], the “membrane lysosphingolipid content, 3.0 hours of incubation” value is 145±25 pmoles lysosphingolipid/mg plasma membrane protein. Further, in the series with Intact neurons, the “lysosphingolipid content, 0 hours of incubation” value is 5±1 pmoles lysosphingolipid/mg plasma membrane protein; the “lysosphingolipid content, 0.5 hours of incubation” value was 8±2 pmoles lysosphingolipid/mg plasma membrane protein; the “lysosphingolipid content, 1.0 hours of incubation” value is 20±5 pmoles lysosphingolipid/mg plasma membrane protein; the “lysosphingolipid content, 2.0 hours of incubation” value was 45±5 pmoles lysosphingolipid/mg plasma membrane protein. The “lysosphingolipid content, 3.0 hours of incubation” value in the series with Intact neurons is on record as 55±15 pmoles lysosphingolipid/mg plasma membrane protein.
As to `CCCCCCCCCCCCC/C=C/[C@@H](O)[C@@H](N)CO` [sphingosine], the “content of sphingosine in the neurons” value in the series on cultured neurons is given as 430 ± 70 pmoles/mg protein. Moreover, in series [1] (10 µM sphingosine), the “KM for substrate phosphatidylinositol bis-phosphate” value is on record as “no effect” and the “calcium ion concentration required for optimal activity” value was “a decrease”. Moreover, in series [1] (10 µM sphingosine, each isoform), the “increase in Vmax” value is reported as “approximately 2 fold”. Besides, in series [2], the “membrane lysosphingolipid content, 0 hours of incubation” value was 105±5 pmoles lysosphingolipid/mg plasma membrane protein; the “membrane lysosphingolipid content, 0.5 hours of incubation” value was 113±15 pmoles lysosphingolipid/mg plasma membrane protein; the “membrane lysosphingolipid content, 1.0 hours of incubation” value was 140±15 pmoles lysosphingolipid/mg plasma membrane protein; the “membrane lysosphingolipid content, 2.0 hours of incubation” value is given as 165±20 pmoles lysosphingolipid/mg plasma membrane protein. In addition, the “membrane lysosphingolipid content, 3.0 hours of incubation” value in series [2] is recorded as 175±25 pmoles lysosphingolipid/mg plasma membrane protein. In addition, in the series on Intact neurons, the “lysosphingolipid content, 0 hours of incubation” value is recorded as 85±15 pmoles lysosphingolipid/mg plasma membrane protein; the “lysosphingolipid content, 0.5 hours of incubation” value is listed as 85±20 pmoles lysosphingolipid/mg plasma membrane protein; the “lysosphingolipid content, 1.0 hours of incubation” value is listed as 110±15 pmoles lysosphingolipid/mg plasma membrane protein; the “lysosphingolipid content, 2.0 hours of incubation” value was 105±5 pmoles lysosphingolipid/mg plasma membrane protein. In addition, the “lysosphingolipid content, 3.0 hours of incubation” value in the series on Intact neurons was 115±15 pmoles lysosphingolipid/mg plasma membrane protein.
`CCCCCCCCCCCCC/C=C/[C@@H](O)[C@@H](N)CO[C@@H]1O[C@H](CO)[C@H](O)[C@H](O)[C@H]1O` [psychosine]: in the series on cultured neurons, the “content of sphingosine in the neurons” value was 220 ± 45 pmoles/mg protein. In addition, in series [1], the KM result is “no change”, the “diminution in Vmax” value is 60% ± 10% and the “increase in calcium ion concentration required for optimal activity” value was determined as 5 fold. In series [2], the “membrane lysosphingolipid content, 0 hours of incubation” value is on record as 45±5 pmoles lysosphingolipid/mg plasma membrane protein; the “membrane lysosphingolipid content, 0.5 hours of incubation” value is listed as 75±20 pmoles lysosphingolipid/mg plasma membrane protein; the “membrane lysosphingolipid content, 1.0 hours of incubation” value is 120±15 pmoles lysosphingolipid/mg plasma membrane protein; the “membrane lysosphingolipid content, 2.0 hours of incubation” value is listed as 180±15 pmoles lysosphingolipid/mg plasma membrane protein. Also, the “membrane lysosphingolipid content, 3.0 hours of incubation” value in series [2] is 175±20 pmoles lysosphingolipid/mg plasma membrane protein. Also, in the series on Intact neurons, the “lysosphingolipid content, 0 hours of incubation” value is listed as 25±5 pmoles lysosphingolipid/mg plasma membrane protein; the “lysosphingolipid content, 0.5 hours of incubation” value is on record as 35±15 pmoles lysosphingolipid/mg plasma membrane protein; the “lysosphingolipid content, 1.0 hours of incubation” value was 45±10 pmoles lysosphingolipid/mg plasma membrane protein; the “lysosphingolipid content, 2.0 hours of incubation” value is recorded as 80±5 pmoles lysosphingolipid/mg plasma membrane protein. Besides, the “lysosphingolipid content, 3.0 hours of incubation” value in the series on Intact neurons is 80±5 pmoles lysosphingolipid/mg plasma membrane protein.

Values taken from EP1488698A1, “Compositions for descreasing intracellular inositol trisphosphate concentration and uses thereof” (priority 1995, dated 1997).
